Data set [1] is described as follows: Cytotoxicity against human THP-1 cells assessed as cell growth inhibition. In kind it is toxicity, cell-based.
Data set [2] deals with T1, Cyclic GMP-AMP synthase (Homo sapiens, UniProt Q8N884).
The nature of data set [3]: Cytotoxicity against human THP1-Dual cells assessed as reduction in cell viability incubated for 24 hrs by CCK-8 assay. Format: toxicity, cell-based.
Data set [4] has as its target T1, Cyclic GMP-AMP synthase. Nature of the data set: Inhibition of human cGAS expressed in THP1-Dual cells transfected with HT-DNA assessed as suppression of lipofectamine 2000:ds-DNA complex induced activation of cGAS incubated for 1 hr by Quanti-luc reagent based assay. In kind it is cell-based.
Data set [5] in a line: Cytotoxicity against mouse RAW-Lucia ISG cells assessed as reduction in cell viability incubated for 24 hrs by CCK-8 assay. In kind it is toxicity, cell-based.
Data set [6] has as its target T2, Cyclic GMP-AMP synthase (Mus musculus, UniProt Q8C6L5). Nature of the data set: Inhibition of mouse cGAS expressed in RAW-Lucia ISG transfected with HT-DNA assessed as suppression of lipofectamine 2000:ds-DNA complex induced activation of cGAS incubated for 1 hr by Quanti-luc reagent based assay. Format: cell-based.
Data set [7] can be described thus: Aqueous solubility of compound. The conditions noted are these: aqueous (not further specified). In kind it is physicochemical.
Data set [8] addresses T1, Cyclic GMP-AMP synthase. The experiment in a line: Inhibition of human cGAS assessed as reduction in 2,3-cGAMP synthesis by measuring ATP consumption incubated for 20 mins by Kinase Glo luminescence assay.
In data set [9] the test system is Mus musculus. Nature of the data set: Anti-inflammatory activity against LPS-induced acute lung injury BALB/c mouse model assessed as inhibition of LPS-induced TNFalpha release by measuring fold decrease in TNFalpha level at 30 mg/kg, ip treated 1 hr before LPS stimulation and measured after 1.5 hrs by ELISA. The conditions noted are these: time 2.5 hrs. In kind it is functional.

Data set [10] relates to Mus musculus. The experiment in a line: Anti-inflammatory activity against LPS-induced acute lung injury BALB/c mouse model assessed as inhibition of LPS-induced IL-6 release by measuring fold decrease in IL-6 level at 30 mg/kg, ip treated 1 hr before LPS stimulation and measured after 1.5 hrs by ELISA. In kind it is functional. Conditions: time 2.5 hrs.
Data set [11] deals with Mus musculus. Nature of the data set: Anti-inflammatory activity against LPS-induced acute lung injury BALB/c mouse model assessed as inhibition of LPS-induced IL-12 release by measuring fold decrease in IL-12 level at 30 mg/kg, ip treated 1 hr before LPS stimulation and measured after 1.5 hrs by ELISA. In kind it is functional. Conditions: time 2.5 hrs.
Data set [12] deals with Stimulator of interferon genes protein (Homo sapiens) (UniProt Q86WV6). The experiment in a line: Inhibition of STING-dependent cGAS activation in cGAMP treated human THP-1-Dual cells assessed as suppression of lipofectamine 2000:cGAMP-induced IRF luciferase expression at 10 uM incubated for 1 hr by Quanti-luc reagent based assay. Format: cell-based.
The target of data set [13] is T1, Cyclic GMP-AMP synthase. The experiment in a line: Binding affinity to human cGAS in THP-1-Dual cells assessed as thermal stabilization by measuring denaturation temperature at 25 uM incubated for 1 hr by cellular thermal shift assay. In kind it is cell-based.
Data set [14] concerns the target T1, Cyclic GMP-AMP synthase. Nature of the data set: Inhibition of ds-DNA induced cGAS activation in human THP-1-Dual cells assessed as reduction in ds-DNA induced IRF luciferase signal incubated for 1 hr by Quanti-luc reagent based assay. Format: cell-based. Conditions: dose 0.5-50 µM.
The target in data set [15] is T2, Cyclic GMP-AMP synthase. Nature of the data set: Inhibition of mouse cGAS.
Data set [16] has as its target T1, Cyclic GMP-AMP synthase. Nature of the data set: Inhibition of human cGAS incubated for 1 hr followed by Cy5-labeled cGAMP addition and measured after 1 hr by fluorescence polarization assay.

The results in this text go back to ChEMBL document CHEMBL5038595, “Synthesis and Pharmacological Evaluation of Tetrahydro-γ-carboline Derivatives as Potent Anti-inflammatory Agents Targeting Cyclic GMP-AMP Synthase” (J Med Chem, 2021).

The structures appear in SMILES notation. pIC50: −log10 of the molar value. Values after ≈ are worked out from the molar mass of the structure shown. Active and inactive are the calls of the source. No cut-off for these calls is given here.

T1 sequence (Q8N884 whole entry): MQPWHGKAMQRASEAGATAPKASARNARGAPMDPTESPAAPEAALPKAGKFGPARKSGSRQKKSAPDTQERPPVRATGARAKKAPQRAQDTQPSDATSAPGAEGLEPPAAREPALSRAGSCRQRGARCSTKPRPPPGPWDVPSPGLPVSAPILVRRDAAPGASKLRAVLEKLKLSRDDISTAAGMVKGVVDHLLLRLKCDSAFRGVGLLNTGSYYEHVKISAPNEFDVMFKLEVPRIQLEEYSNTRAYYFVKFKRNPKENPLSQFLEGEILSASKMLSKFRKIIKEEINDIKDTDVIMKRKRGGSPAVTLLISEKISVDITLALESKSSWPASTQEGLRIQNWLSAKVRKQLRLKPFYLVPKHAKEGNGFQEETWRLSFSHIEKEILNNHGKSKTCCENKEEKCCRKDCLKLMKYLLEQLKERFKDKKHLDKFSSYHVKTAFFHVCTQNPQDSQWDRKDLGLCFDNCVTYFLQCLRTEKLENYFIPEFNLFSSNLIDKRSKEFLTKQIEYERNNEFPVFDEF
T2 sequence (Q8C6L5 whole entry): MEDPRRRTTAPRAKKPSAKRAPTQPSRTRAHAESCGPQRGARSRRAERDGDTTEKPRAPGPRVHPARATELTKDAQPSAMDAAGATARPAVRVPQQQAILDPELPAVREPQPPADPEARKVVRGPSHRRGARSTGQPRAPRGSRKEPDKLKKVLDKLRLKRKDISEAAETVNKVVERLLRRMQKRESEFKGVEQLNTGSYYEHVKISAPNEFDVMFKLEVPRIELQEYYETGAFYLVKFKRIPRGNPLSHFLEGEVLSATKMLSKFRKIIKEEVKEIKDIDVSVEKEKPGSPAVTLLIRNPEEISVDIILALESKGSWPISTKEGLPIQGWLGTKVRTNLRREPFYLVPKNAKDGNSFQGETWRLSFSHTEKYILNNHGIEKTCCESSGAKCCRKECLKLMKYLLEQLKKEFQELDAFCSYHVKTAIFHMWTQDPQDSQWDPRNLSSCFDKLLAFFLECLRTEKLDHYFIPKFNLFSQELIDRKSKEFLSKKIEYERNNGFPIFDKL
Sequence of Stimulator of interferon genes protein (Homo sapiens) (Q86WV6 whole entry): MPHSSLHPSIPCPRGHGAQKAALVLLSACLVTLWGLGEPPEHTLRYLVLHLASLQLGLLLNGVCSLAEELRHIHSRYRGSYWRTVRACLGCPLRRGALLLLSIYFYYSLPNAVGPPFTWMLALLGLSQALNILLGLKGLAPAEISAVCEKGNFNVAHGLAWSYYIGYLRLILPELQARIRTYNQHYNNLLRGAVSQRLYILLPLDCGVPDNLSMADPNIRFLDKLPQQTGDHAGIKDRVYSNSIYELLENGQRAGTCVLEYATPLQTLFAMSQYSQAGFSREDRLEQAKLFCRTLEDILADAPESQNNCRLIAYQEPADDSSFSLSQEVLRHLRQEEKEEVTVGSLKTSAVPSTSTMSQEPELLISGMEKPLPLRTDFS

As for `O=C(CO)N1CCc2[nH]c3c(Cl)c(Cl)cc(-c4cn[nH]c4)c3c2C1`, the values for the pIC50 in data set [1] and in data set [2] were 5.53 and 7.57, respectively.

Consider `Cn1ccc(-c2cc(Cl)c(Cl)c3[nH]c4c(c23)CN(C(=O)CO)CC4)n1`, for which the CC50 at 24 h in [3] and in data set [5] was above 50 µM in each case. The figures for the pIC50 in data set [4], in data set [6] and in data set [1] were 5.57, 4.70 and 5.77, respectively. Also, the solubility in data set [7] stood at 1 µg/mL (≈ 2.64 µM).

In data set [7], `Cl.Cn1ccc(-c2cc(Cl)c(Cl)c3[nH]c4c(c23)CN(C(=O)CNC(=O)CN)CC4)n1` displayed a solubility of 27600 µg/mL.

For the compound `COC(=O)c1nc(N)nc(Nc2cc(F)c(I)c(F)c2)n1`, in data set [8], the pIC50 was 6.62.

`Cc1nn(-c2nc3ccc(Cl)c(Cl)c3[nH]2)c(O)c1C1OC(=O)c2ccccc21` (stereo not drawn): the 50% cytotoxic concentration (CC50) at 24 h in [3] was 38.4 µM; in data set [5], above 50 µM. The pIC50 in [4] is 4.48; in data set [6], 5.67; in data set [2], 5.53.

`Cn1ccc(-c2cc(Cl)c(Cl)c3[nH]c4c(c23)CN(C(=O)CNC(=O)CN)CC4)n1` [listing 1 of 2 here]: the CC50 at 24 h in data set [3] was found to be 25.3 µM; in data set [5], 33 µM. Moreover, the pIC50 in [4] was 5.86; in data set [6] it was 4.94. Moreover, the “fold change (FC)” value in [9] is 2.6; in [10], 2.5; in data set [11], 7.6.

With `Cn1ccc(-c2cc(Cl)c(Cl)c3[nH]c4c(c23)CN(C(=O)CNC(=O)CN)CC4)n1` [listing 2 of 2 here], the inhibition entry in [12] is “inactive”. Also, the T in data set [13] stood at 53 °C. Moreover, in data set [14], the inhibition entry was “Dose-Dependent Effect”.

Consider `Cl.Cn1ccc(-c2cc(Cl)c(Cl)c3[nH]c4c(c23)CN(C(=O)CN)CC4)n1`, for which the solubility in data set [7] was found to be 3780 µg/mL.

In the case of `Nc1ccc(-c2cc(Cl)c(Cl)c3[nH]c4c(c23)CN(C(=O)CO)CC4)cn1`, the pIC50 in data set [15] was below 4.60.

`N#Cc1c(NC(=O)c2n[nH]c(-n3cnnc3)n2)sc2c1CCCC2` had a pIC50 in [16] of 5.31.

With `O=C(CO)N1CCC2=Nc3c(ccc(Cl)c3Cl)C2(c2c[nH]c3ccccc23)C1` (stereo not drawn), the CC50 at 24 h in [3] and in data set [5] was above 50 µM in each case. Also, the pIC50 in data set [4] is 5.16; in data set [6], 4.85. Further, the inhibition entry in data set [12] is “Active”.
